# Laboratory results from patent US20260217673A1, “NOVEL COMPOUND AS RON INHIBITOR” (LG CHEM, LTD., priority 2022, published 2026).
# pIC50: −log10 of the molar value.
# Columns and labels:
# cMET = cMET (Homo sapiens, UniProt P08581); experiment: MET (cMET) enzyme inhibitory activity, TR-FRET kinase assay; format: biochemical; settings: cMET protein, TK peptide substrate
# Procedure: In addition, to measure cMET enzyme activity inhibition, an experiment was performed by the same method as the experiment for measuring the RON enzyme activity inhibition.
# Specifically, the compound was prepared at a concentration of 1 mM with 100% DMSO and serially diluted 10 times through 3-fold dilution. 2 μl of the serially diluted compound was added to a 96-well plate containing 48 μl 1× kinase reaction buffer (50 mM HEPES (pH 7.4), 0.05% BSA, 0.005% Tween-20, 1 mM DTT, 0.5 mM MnCl2, 20 mM MgCl2).
# The cMET protein was diluted in a cMET storage buffer (50 mM Tris-HCl (pH 7.5), 150 mM NaCl, 0.05% Brij35, 1 mM DTT, 10% glycerol) to a concentration of 263 nM, and then diluted again with 1× kinase reaction buffer to 2 nM. As a substrate cocktail, a MET-specific substrate mixture (5 μM TK peptide, 10 mM ATP) was prepared at a concentration twice the final reaction concentration.
# (§1) After that, a 384-well plate was prepared, and 2.5 μl of the diluted example compound was added to each of the experimental group wells, and 2.5 μl of a 4% DMSO solution was dispensed into high control wells and low control wells.
# (§2) Afterward, 2.5 μl of 2 nM cMET was dispensed to the high control wells and the experimental group wells, and 2.5 μl of 1× kinase reaction buffer was added to the low control wells, and after centrifugation at 1000 RPM for 40 seconds at room temperature, the mixtures were incubated at room temperature for 20 to 30 minutes. Then, 5 μl of the substrate cocktail (2×) was dispensed into all wells, and after centrifugation at 1000 RPM for 40 seconds at room temperature, the mixtures were incubated at room temperature for 60 minutes. Afterward, 5 μl of 90 mM EDTA was added to all wells to terminate the reaction, and the mixtures were incubated again at room temperature for 5 minutes. Thereafter, 5 μl of 4× phosphotyrosine antibodies (Perkin Elmer) containing europium was added to all wells and incubated at room temperature for 60 minutes. After the incubation, the 384-well-plate was read with a Vison plate reader. At this time, the excitation wavelength was 340 nm, and the emission wavelengths were 620 nm and 665 nm. The IC50 value of each example compound was derived using the GraphPd Prism7 program.
# RON = RON (Homo sapiens, UniProt Q04912); experiment: RON inhibitory activity, TR-FRET kinase assay; format: biochemical; settings: RON protein, ULight-labeled Poly GT substrate
# Procedure: To measure the RON inhibitory activity of the example compounds, the IC50 of the compounds was measured using time-resolved fluorescence energy transfer (TR-FRET).
# Specifically, the compound was prepared at a concentration of 1 mM with 100% DMSO and serially diluted 10 times through 3-fold dilution. 2 μl of the serially diluted compound was added to a 96-well plate containing 48 μl of 1× kinase reaction buffer (50 mM HEPES (pH 7.4), 0.01% Tween-20, 5 mM DTT, 0.5 mM Na3VO4, 2 mM EGTA, 10 mM MgCl2).
# The RON protein was diluted with a RON storage buffer (50 mM Tris-HCl (pH 7.5), 150 mM NaCl, 0.5 mM EDTA, 0.02% Triton X-100) to a concentration of 49.3 nM, and then diluted again with 1× kinase reaction buffer to be 0.4 nM. As a substrate cocktail, a RON-specific substrate mixture (40 μM ULight-labeled Poly GT, 100 nM ATP) was prepared at a concentration twice the final reaction concentration.
# as §1
# as §2, with “of 0.4” for “of 2”, “nM RON” for “nM cMET”, “dispensed into” for “dispensed to”, “of 30” for “of 90”
# Chain of cMET (P08581 25-1390): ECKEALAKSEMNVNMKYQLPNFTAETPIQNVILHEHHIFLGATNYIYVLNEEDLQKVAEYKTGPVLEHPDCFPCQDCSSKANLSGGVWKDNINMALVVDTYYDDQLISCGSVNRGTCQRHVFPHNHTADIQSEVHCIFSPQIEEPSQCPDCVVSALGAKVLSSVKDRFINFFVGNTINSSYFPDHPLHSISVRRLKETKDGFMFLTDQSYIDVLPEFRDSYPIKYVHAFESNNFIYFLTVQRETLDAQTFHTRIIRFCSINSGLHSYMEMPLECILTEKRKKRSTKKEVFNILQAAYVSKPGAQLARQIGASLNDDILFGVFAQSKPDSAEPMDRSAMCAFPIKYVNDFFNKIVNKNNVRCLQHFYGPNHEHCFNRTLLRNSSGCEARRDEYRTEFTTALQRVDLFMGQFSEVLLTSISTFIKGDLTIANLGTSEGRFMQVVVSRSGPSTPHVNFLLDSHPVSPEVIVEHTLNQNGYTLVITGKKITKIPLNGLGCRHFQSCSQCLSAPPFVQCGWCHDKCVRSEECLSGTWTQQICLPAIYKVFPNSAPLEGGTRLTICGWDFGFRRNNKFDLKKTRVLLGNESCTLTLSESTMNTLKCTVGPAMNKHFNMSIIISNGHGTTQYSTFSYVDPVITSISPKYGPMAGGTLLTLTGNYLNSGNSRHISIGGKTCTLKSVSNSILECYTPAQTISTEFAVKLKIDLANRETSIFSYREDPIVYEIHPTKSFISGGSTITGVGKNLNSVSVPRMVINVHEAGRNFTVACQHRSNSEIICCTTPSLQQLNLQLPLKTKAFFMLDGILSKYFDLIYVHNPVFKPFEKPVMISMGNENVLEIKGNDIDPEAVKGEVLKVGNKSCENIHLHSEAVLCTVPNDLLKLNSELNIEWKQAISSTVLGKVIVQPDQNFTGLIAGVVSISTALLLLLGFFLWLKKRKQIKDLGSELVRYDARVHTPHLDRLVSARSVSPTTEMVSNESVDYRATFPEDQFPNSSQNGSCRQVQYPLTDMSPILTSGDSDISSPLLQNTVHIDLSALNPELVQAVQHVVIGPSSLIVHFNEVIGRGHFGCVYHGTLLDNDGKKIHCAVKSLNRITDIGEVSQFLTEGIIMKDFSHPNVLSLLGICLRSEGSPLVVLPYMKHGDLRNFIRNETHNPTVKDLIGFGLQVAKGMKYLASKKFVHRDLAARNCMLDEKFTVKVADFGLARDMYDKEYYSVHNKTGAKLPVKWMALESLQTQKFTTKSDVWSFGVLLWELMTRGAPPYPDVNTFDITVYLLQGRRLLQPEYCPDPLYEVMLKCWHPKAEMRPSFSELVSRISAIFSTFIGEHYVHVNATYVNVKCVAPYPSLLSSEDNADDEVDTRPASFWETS
# Chain of RON (Q04912 25-1400, species assumed): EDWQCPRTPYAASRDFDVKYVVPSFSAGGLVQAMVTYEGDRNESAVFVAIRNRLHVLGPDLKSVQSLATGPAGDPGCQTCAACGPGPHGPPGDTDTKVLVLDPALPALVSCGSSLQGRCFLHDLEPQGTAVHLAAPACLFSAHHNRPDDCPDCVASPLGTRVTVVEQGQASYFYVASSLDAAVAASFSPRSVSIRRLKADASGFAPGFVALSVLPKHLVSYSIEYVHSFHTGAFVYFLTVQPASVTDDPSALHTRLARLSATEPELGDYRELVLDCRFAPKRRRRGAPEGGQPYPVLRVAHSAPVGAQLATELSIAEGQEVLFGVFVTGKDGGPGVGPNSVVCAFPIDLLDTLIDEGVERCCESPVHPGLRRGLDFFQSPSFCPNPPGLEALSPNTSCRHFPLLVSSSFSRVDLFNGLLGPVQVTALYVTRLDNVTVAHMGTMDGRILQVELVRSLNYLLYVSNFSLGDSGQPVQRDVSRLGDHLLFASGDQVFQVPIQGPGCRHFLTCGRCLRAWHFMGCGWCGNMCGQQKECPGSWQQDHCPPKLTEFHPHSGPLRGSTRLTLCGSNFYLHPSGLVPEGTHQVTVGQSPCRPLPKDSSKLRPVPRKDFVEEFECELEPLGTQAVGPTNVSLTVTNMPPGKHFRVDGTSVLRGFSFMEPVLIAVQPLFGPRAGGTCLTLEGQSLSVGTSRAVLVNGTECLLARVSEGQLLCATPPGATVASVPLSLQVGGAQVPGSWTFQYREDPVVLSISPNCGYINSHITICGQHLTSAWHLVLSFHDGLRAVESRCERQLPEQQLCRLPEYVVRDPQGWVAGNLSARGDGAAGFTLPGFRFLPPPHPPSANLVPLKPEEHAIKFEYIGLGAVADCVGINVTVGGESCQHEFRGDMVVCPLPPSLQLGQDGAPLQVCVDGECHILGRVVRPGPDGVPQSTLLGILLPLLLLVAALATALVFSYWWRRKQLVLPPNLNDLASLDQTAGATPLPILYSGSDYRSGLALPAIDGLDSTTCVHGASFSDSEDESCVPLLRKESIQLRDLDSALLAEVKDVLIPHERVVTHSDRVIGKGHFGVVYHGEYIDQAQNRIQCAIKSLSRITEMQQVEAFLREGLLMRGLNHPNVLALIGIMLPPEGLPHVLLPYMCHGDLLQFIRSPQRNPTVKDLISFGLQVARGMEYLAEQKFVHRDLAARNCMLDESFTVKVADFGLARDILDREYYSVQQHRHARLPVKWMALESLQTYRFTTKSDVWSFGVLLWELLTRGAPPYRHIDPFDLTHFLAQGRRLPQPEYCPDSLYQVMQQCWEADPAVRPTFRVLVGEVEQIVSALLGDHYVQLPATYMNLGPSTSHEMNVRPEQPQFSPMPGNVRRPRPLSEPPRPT
Structure (SMILES),pIC50 (cMET),pIC50 (RON)
"Nc1ncnc(Oc2c(F)cc(NC(=O)c3cnn(-c4ncccn4)c3C(F)(F)F)cc2F)c1Cl [Example 12, N-(4-((6-amino-5-chloropyrimidin-4-yl)oxy)-3,5-difluorophenyl)-1-(pyrimidin-2-yl)-5-(trifluoromethyl)-1H-pyrazole-4-carboxamide]",5.30 to 6.30,> 7.30
"Nc1nccc(Oc2c(F)cc(NC(=O)c3cnn(-c4ccccc4)c3C(F)(F)F)cc2F)c1I [Example 13, N-(4-((2-amino-3-iodopyridin-4-yl)oxy)-3,5-difluorophenyl)-1-phenyl-5-(trifluoromethyl)-1H-pyrazole-4-carboxamide]",5.30 to 6.30,> 7.30
"Nc1nccc(Oc2c(F)cc(NC(=O)c3cnn(-c4ccccn4)c3C(F)(F)F)cc2F)c1I [Example 14, N-(4-((2-amino-3-iodopyridin-4-yl)oxy)-3,5-difluorophenyl)-1-(pyridin-2-yl)-5-(trifluoromethyl)-1H-pyrazole-4-carboxamide]",< 5.30,> 7.30
"Nc1nccc(Oc2c(F)cc(NC(=O)c3cnn(-c4ncccc4F)c3C(F)(F)F)cc2F)c1I [Example 15, N-(4-((2-amino-3-iodopyridin-4-yl)oxy)-3,5-difluorophenyl)-1-(3-fluoropyridin-2-yl)-5-(trifluoromethyl)-1H-pyrazole-4-carboxamide]",6.30 to 7.30,> 7.30
"Nc1nccc(Oc2c(F)cc(NC(=O)c3cnn(-c4ncccc4Cl)c3C(F)(F)F)cc2F)c1I [Example 16, N-(4-((2-amino-3-iodopyridin-4-yl)oxy)-3,5-difluorophenyl)-1-(3-chloropyridin-2-yl)-5-(trifluoromethyl)-1H-pyrazole-4-carboxamide]",6.30 to 7.30,> 7.30
"Nc1nccc(Oc2c(F)cc(NC(=O)c3cnn(-c4cccnn4)c3C(F)(F)F)cc2F)c1I [Example 17, N-(4-((2-amino-3-iodopyridin-4-yl)oxy)-3,5-difluorophenyl)-1-(pyridazin-3-yl)-5-(trifluoromethyl)-1H-pyrazole-4-carboxamide]",5.30 to 6.30,> 7.30
"Nc1nccc(Oc2c(F)cc(NC(=O)c3cnn(-c4ncccn4)c3C(F)(F)F)cc2F)c1I [Example 18, N-(4-((2-amino-3-iodopyridin-4-yl)oxy)-3,5-difluorophenyl)-1-(pyrimidin-2-yl)-5-(trifluoromethyl)-1H-pyrazole-4-carboxamide]",5.30 to 6.30,> 7.30
"Nc1nccc(Oc2c(F)cc(NC(=O)c3cnn(-c4ccccc4)c3C(F)(F)F)cc2F)c1C1CCOCC1 [Example 19, N-(4-((2-amino-3-(tetrahydro-2H-pyran-4-yl)pyridin-4-yl)oxy)-3,5-difluorophenyl)-1-phenyl-5-(trifluoromethyl)-1H-pyrazole-4-carboxamide]",5.30 to 6.30,> 7.30
"Nc1nccc(Oc2c(F)cc(NC(=O)c3cnn(-c4ncccc4F)c3C(F)(F)F)cc2F)c1C1CCOCC1 [Example 20, N-(4-((2-amino-3-(tetrahydro-2H-pyran-4-yl)pyridin-4-yl)oxy)-3,5-difluorophenyl)-1-(3-fluoropyridin-2-yl)-5-(trifluoromethyl)-1H-pyrazole-4-carboxamide]",6.30 to 7.30,> 7.30
"Nc1nccc(Oc2c(F)cc(NC(=O)c3cnn(-c4ncccc4Cl)c3C(F)(F)F)cc2F)c1C1CCOCC1 [Example 21, N-(4-((2-amino-3-(tetrahydro-2H-pyran-4-yl)pyridin-4-yl)oxy)-3,5-difluorophenyl)-1-(3-chloropyridin-2-yl)-5-(trifluoromethyl)-1H-pyrazole-4-carboxamide]",6.30 to 7.30,> 7.30
"Nc1nccc(Oc2c(F)cc(NC(=O)c3cnn(-c4ncccn4)c3C(F)(F)F)cc2F)c1C1CCOCC1 [Example 22, N-(4-((2-amino-3-(tetrahydro-2H-pyran-4-yl)pyridin-4-yl)oxy)-3,5-difluorophenyl)-1-(pyrimidin-2-yl)-5-(trifluoromethyl)-1H-pyrazole-4-carboxamide]",5.30 to 6.30,> 7.30
"Nc1nccc(Oc2c(F)cc(NC(=O)c3cnn(-c4cccnn4)c3C(F)(F)F)cc2F)c1C1CCOCC1 [Example 23, N-(4-((2-amino-3-(tetrahydro-2H-pyran-4-yl)pyridin-4-yl)oxy)-3,5-difluorophenyl)-1-(pyridazin-3-yl)-5-(trifluoromethyl)-1H-pyrazole-4-carboxamide]",5.30 to 6.30,> 7.30
"Nc1nccc(Oc2c(F)cc(NC(=O)c3cnn(-c4ccccn4)c3C(F)(F)F)cc2F)c1C1CCOCC1 [Example 24, N-(4-((2-amino-3-(tetrahydro-2H-pyran-4-yl)pyridin-4-yl)oxy)-3,5-difluorophenyl)-1-(pyridin-2-yl)-5-(trifluoromethyl)-1H-pyrazole-4-carboxamide]",5.30 to 6.30,> 7.30
"C#Cc1c(Oc2c(F)cc(NC(=O)c3cnn(-c4ccccc4)c3C(F)(F)F)cc2F)ccnc1N [Example 25, N-(4-((2-amino-3-ethynylpyridin-4-yl)oxy)-3,5-difluorophenyl)-1-phenyl-5-(trifluoromethyl)-1H-pyrazole-4-carboxamide]",5.30 to 6.30,> 7.30
"C#Cc1c(Oc2c(F)cc(NC(=O)c3cnn(-c4ncccc4F)c3C(F)(F)F)cc2F)ccnc1N [Example 26, N-(4-((2-amino-3-ethynylpyridin-4-yl)oxy)-3,5-difluorophenyl)-1-(3-fluoropyridin-2-yl)-5-(trifluoromethyl)-1H-pyrazole-4-carboxamide]",5.30 to 6.30,> 7.30
"C#Cc1c(Oc2c(F)cc(NC(=O)c3cnn(-c4ncccc4Cl)c3C(F)(F)F)cc2F)ccnc1N [Example 27, N-(4-((2-amino-3-ethynylpyridin-4-yl)oxy)-3,5-difluorophenyl)-1-(3-chloropyridin-2-yl)-5-(trifluoromethyl)-1H-pyrazole-4-carboxamide]",6.30 to 7.30,> 7.30
"C#Cc1c(Oc2c(F)cc(NC(=O)c3cnn(-c4ncccn4)c3C(F)(F)F)cc2F)ccnc1N [Example 28, N-(4-((2-amino-3-ethynylpyridin-4-yl)oxy)-3,5-difluorophenyl)-1-(pyrimidin-2-yl)-5-(trifluoromethyl)-1H-pyrazole-4-carboxamide]",5.30 to 6.30,> 7.30
"C#Cc1c(Oc2c(F)cc(NC(=O)c3cnn(-c4ccccn4)c3C(F)(F)F)cc2F)ccnc1N [Example 29, N-(4-((2-amino-3-ethynylpyridin-4-yl)oxy)-3,5-difluorophenyl)-1-(pyridin-2-yl)-5-(trifluoromethyl)-1H-pyrazole-4-carboxamide]",5.30 to 6.30,> 7.30
"C#Cc1c(Oc2c(F)cc(NC(=O)c3cnn(-c4cccnn4)c3C(F)(F)F)cc2F)ccnc1N [Example 30, N-(4-((2-amino-3-ethynylpyridin-4-yl)oxy)-3,5-difluorophenyl)-1-(pyridazin-3-yl)-5-(trifluoromethyl)-1H-pyrazole-4-carboxamide]",5.30 to 6.30,> 7.30
"N#Cc1c(Oc2c(F)cc(NC(=O)c3cnn(-c4ccccc4)c3C(F)(F)F)cc2F)ccnc1N [Example 31, N-(4-((2-amino-3-cyanopyridin-4-yl)oxy)-3,5-difluorophenyl)-1-phenyl-5-(trifluoromethyl)-1H-pyrazole-4-carboxamide]",5.30 to 6.30,> 7.30
